Experimental data taken from the supplement of paper PMC11208160.

Assay: recombinant barcode read abundance after kanamycin selection (control-corrected) (log10(CPM+1)); higher = more efficient recombination; sequences stand for … in AGTGCAGAGAAAATCGGCCAGTTTTCTCTGCCTGCAGTCCGCATGCCGT…AGATTTATGCAGCGGACTGCCTTTCTCCCAAAGTGATAAACCGGACAGTATCATGGACCGGTTTTCCCGGTAATCCGTATTTGCAAGGTTGGTTTCACT; site = the 11-nt target
In short: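 A vector carrying a T7-inducible recombinase and the last 73 bp of the bridge RNA received, by Gibson cloning, oligos encoding a promoter, target, barcode and the first 104 bridge RNA bases under J23119. The pooled constructs entered E. coli together with a donor plasmid by electroporation. Selection used chloramphenicol/ampicillin/kanamycin with 0.1 mM IPTG, with chloramphenicol/ampicillin LB agar as the control, each in two replicates. Recombination efficiency is the averaged, control-corrected counts-per-million of barcodes at recombinant junctions, reported as log10(CPM+1).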

In order of falling “recombinant barcode read abundance (log10)” value:
1. TTGGACGCTTGGGTTCTAACCTGTTGCCT (site TTGGACGCTAG)  2.37
2. TTGGACACTTGGGTTCTAACCTGTTGCCT (site TTGGACACTAG)  2.33
3. TTGGTTCCTTGGGTTCTAACCTGTTGCCT (site TTGGTTCCTAG)  2.07
4. TTGGGTGCTTGGGTTCTAACCTGTTGCCG (site TTGGGTGCTCG)  1.81
5. TTGCGGCCTTGGGTTCTAACCTGTTGCAG (site TTGCGGCCTCT)  1.78
6. TTGAAGCCTTGGGTTCTAACCTGTTGCCT (site TTGAAGCCTAG)  1.38
7. TTGATGACTTGGGTTCTAACCTGTTGCCT (site TTGATGACTAG)  1.25
8. TTGACACCTTGGGTTCTAACCTGTTGCCT (site TTGACACCTAG)  1.1
9. TTGTACACTTGGGTTCTAACCTGTTGCCC (site TTGTACACTGG)  0.996
10. TTGCATTCTTGGGTTCTAACCTGTTGCTG (site TTGCATTCTCA)  0.962
11. TTGGACGCTTGGGTTCTAACCTGTTGCCT (site TTGGGCGCTAG)  0.838
12. TTGACTGCTTGGGTTCTAACCTGTTGCCT (site TTGACTGCTAG)  0.812
13. TTGTAAGCTTGGGTTCTAACCTGTTGCCG (site TTGTAAGCTCG)  0.653
14. TTGTACACTTGGGTTCTAACCTGTTGCCC (site CACATGCCTCA)  0.452
15. TTGTAAGCTTGGGTTCTAACCTGTTGCCG (site TTGTGAGCTCC)  0.441
16. TTGGTTCCTTGGGTTCTAACCTGTTGCCT (site TTGGTGCCTAG)  0.43
17. TTGGACGCTTGGGTTCTAACCTGTTGCCT (site TTGGCCGCTAG)  0.335
18. TTGGACACTTGGGTTCTAACCTGTTGCCT (site TTGGGCACTAG)  0.327
19. TTGTCTCCTTGGGTTCTAACCTGTTGCCT (site TTGTCTCCTAG)  0.304
20. TTGATATCTTGGGTTCTAACCTGTTGCCT (site TTGACATCTAG)  0.264
21. TTGAATTCTTGGGTTCTAACCTGTTGCTT (site TTGTATTCTAG)  0.234
22. TTGGACACTTGGGTTCTAACCTGTTGCCT (site TTGGTCACTAG)  0.227
23. TTGTGTTCTTGGGTTCTAACCTGTTGCTT (site TTGTGTTCTAA)  0.159
24. TTGGTTCCTTGGGTTCTAACCTGTTGCCT (site TTGGTACCTAG)  0.155
25. TTGATATCTTGGGTTCTAACCTGTTGCCT (site TTGATATCTAG)  0.149
26. TTGCATTCTTGGGTTCTAACCTGTTGCTG (site AAAGGGGCTAG)  0.147
27. TTGGACGCTTGGGTTCTAACCTGTTGCCT (site TTGGTCGCTAG)  0.133
28. TTGTCTCCTTGGGTTCTAACCTGTTGCCT (site GTGTCTCCTAG)  0.109
29. TTGATGACTTGGGTTCTAACCTGTTGCCT (site TTGTAGACTAG)  0.103
30. TTGATATCTTGGGTTCTAACCTGTTGCCT (site TTGAAATCTAG)  0.0834
31. TTGACTGCTTGGGTTCTAACCTGTTGCCT (site TTGAATGCTAG)  0.0744
32. TTGACACCTTGGGTTCTAACCTGTTGCCT (site GGAGTCACTCC)  0.0713
33. TTGTCTCCTTGGGTTCTAACCTGTTGCCT (site ATGTCTCCTAG)  0.0689
34. TTGGGTGCTTGGGTTCTAACCTGTTGCCG (site TTGGGTTCTAG)  0.0649
35. TTGACTGCTTGGGTTCTAACCTGTTGCCT (site TTGAGTGCTAG)  0.0596
36. TTGGACACTTGGGTTCTAACCTGTTGCCT (site TTGGCCACTAG)  0.0571
37. TTGGTTCCTTGGGTTCTAACCTGTTGCCT (site TTGGTCCCTAG)  0.0439
38. TTGCGGCCTTGGGTTCTAACCTGTTGCAG (site CAAACTACTTG)  0.0363
39. TTGAAGCCTTGGGTTCTAACCTGTTGCCT (site GTGAAGCCTAG)  0.0341
40. TTGAATTCTTGGGTTCTAACCTGTTGCTT (site TTGAATTCTAA)  0.0275
41. TTGACTGCTTGGGTTCTAACCTGTTGCCT (site TTGATTGCTAG)  0.0272
42. TTGATATCTTGGGTTCTAACCTGTTGCCT (site TTGAGATCTAG)  0.0244
43. TTGTCTCCTTGGGTTCTAACCTGTTGCCT (site CTGTCTCCTAG)  0.0237
44. TTGTGTTCTTGGGTTCTAACCTGTTGCTT (site TTGTACTCTAA)  0.00637

Assay: recombinant barcode read abundance after kanamycin selection (control-corrected) (log10(CPM+1)); higher = more efficient recombination; sequences stand for … in AGTGCAGAGAAAATCGGCCAGTTTTCTCTGCCTGCAGTCCGCATGCCGT…ATTTATGCAGCGGACTGCCTTTCTCCCAAAGTGATAAACCGGACAGTATCATGGACCGGTTTTCCCGGTAATCCGTATTTGCAAGGTTGGTTTCACT; site = the 11-nt target
Procedure: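 Same pooled E. coli target screen (IS621 bridge recombinase, kanamycin selection, control-corrected CPM, mean of 2 biological replicates). Here the two core-binding nucleotides of the LTG and RTG of the bridge RNA target-binding loop are mutated. Target and donor CT cores are held constant, and the other 9 guide positions match the target. The target is read from the library oligo sequence. Molecule = full bridge RNA written as DNA: nt 1-80 from the library oligo, rest WT scaffold.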

In order of falling “recombinant barcode read abundance (log10)” value:
1. AAACACACTTGGGTTCTAACCTGTTGCCTAG [AAACACACTAG_LTGcore_CT_RTGcore_CT] (site AAACACACTAG) (LTG core: CT, RTG core: CT)  2
2. AAACAGTCTTGGGTTCTAACCTGTTGCCTCC [AAACAGTCTAG_LTGcore_CT_RTGcore_GG] (site AAACAGTCTAG) (LTG core: CT, RTG core: GG)  1.4
3. AAACAGTCATGGGTTCTAACCTGTTGCCTAG [AAACAGTCTAG_LTGcore_CA_RTGcore_CT] (site AAACAGTCTAG) (LTG core: CA, RTG core: CT)  1.38
4. AAACAGTCTTGGGTTCTAACCTGTTGCCTAT [AAACAGTCTAG_LTGcore_CT_RTGcore_AT] (site AAACAGTCTAG) (LTG core: CT, RTG core: AT)  1.32
5. AAACACACTTGGGTTCTAACCTGTTGCCTCA [AAACACACTAG_LTGcore_CT_RTGcore_TG] (site AAACACACTAG) (LTG core: CT, RTG core: TG)  0.985
6. AAACACACTTGGGTTCTAACCTGTTGCCTTA [AAACACACTAG_LTGcore_CT_RTGcore_TA] (site AAACACACTAG) (LTG core: CT, RTG core: TA)  0.852
7. AAACACATCTGGGTTCTAACCTGTTGCCTGA [AAACACACTAG_LTGcore_TC_RTGcore_TC] (site AAACACACTAG) (LTG core: TC, RTG core: TC)  0.505
8. AAACACACATGGGTTCTAACCTGTTGCCTTG [AAACACACTAG_LTGcore_CA_RTGcore_CA] (site AAACACACTAG) (LTG core: CA, RTG core: CA)  0.341
9. AAACAGTCATGGGTTCTAACCTGTTGCCTTG [AAACAGTCTAG_LTGcore_CA_RTGcore_CA] (site AAACAGTCTAG) (LTG core: CA, RTG core: CA)  0.25
10. AAACAGTCGTGGGTTCTAACCTGTTGCCTCG [AAACAGTCTAG_LTGcore_CG_RTGcore_CG] (site AAACAGTCTAG) (LTG core: CG, RTG core: CG)  0.227
11. AAACACACTTGGGTTCTAACCTGTTGCCTAC [AAACACACTAG_LTGcore_CT_RTGcore_GT] (site AAACACACTAG) (LTG core: CT, RTG core: GT)  0.217
12. AAACACAAGTGGGTTCTAACCTGTTGCCTCT [AAACACACTAG_LTGcore_AG_RTGcore_AG] (site AAACACACTAG) (LTG core: AG, RTG core: AG)  0.196
13. AAACAGTACTGGGTTCTAACCTGTTGCCTAG [AAACAGTCTAG_LTGcore_AC_RTGcore_CT] (site AAACAGTCTAG) (LTG core: AC, RTG core: CT)  0.0247
14. AAACACAACTGGGTTCTAACCTGTTGCCTAG [AAACACACTAG_LTGcore_AC_RTGcore_CT] (site AAACACACTAG) (LTG core: AC, RTG core: CT)  0.0236
15. AAACAGTAATGGGTTCTAACCTGTTGCCTAG [AAACAGTCTAG_LTGcore_AA_RTGcore_CT] (site AAACAGTCTAG) (LTG core: AA, RTG core: CT)  0.01
